Results from patent publication US6511965B2, “Ether type lipid A 1-carboxylic acid analogs” (Sankyo Company, Limited, priority 1999, dated 2003).
Where two headings read alike, the source gives them in different places.

How the values were obtained:
[1] = system: TNF α production by U937 cells; experiment: Test on macrophage activity inhibition (antagonist test): LPS antagonistic activity on TNFα production by U937 cells; format: cell-based; conditions: in the presence of 10 ng/ml of LPS, human monocytic U937 cells, 6 hours, TNFα by ELISA, concentration suppressing TNFα to 50% of standard production amount, read-out: IC50(nM), LPS antagonistic activities of the compounds on TNF α production by U937 cells
Experimental: Test on macrophage activity inhibition (antagonist test).
TNFα is produced in vitro using human monocytic cell strain U937. The production amount of TNFα is determined by ELISA KIT of Genzyme Corporation.
Evaluation is carried out in accordance with the method of Daniel-Issakani, et al. (Journal of Biological Chemistry, 264, 20240-20247 (1989)).
By 10 ng/ml of LPS (lipopolysaccharide), about 1 ng of TNFα is produced per 10^5 cells of U937 during 6 hours (designated as a standard production amount: 100%).
In the presence of 10 ng/ml of LPS, the concentration of each of the compounds obtained in the Examples at which the production amount of TNFα is suppressed to 50% of the standard production amount is determined and it is expressed as ED50%.

| Compound | IC50 ([1]; U-937) [nM] | melting point [°C] | IC50 [1] [nM] |
| --- | --- | --- | --- |
| CCCCCCCCCCCCCC(=O)O[C@H](CCCCCCCCCCC)CCO[C@@H]1[C@@H](NC(C)=O)[C@H](OC[C@H]2O[C@H](C(=O)O)[C@H](NC(=O)C[C@H](O)CCCCCCCCCCC)[C@@H](OCC[C@H](O)CCCCCCCCCCC)[C@@H]2O)O[C@H](COC)[C@H]1OP(=O)(O)O [Example 2, 2,6-Anhydro-7-O-[2-acetylamino-2-deoxy-6-O-methyl-4-O-phosphono-3-O-{(R)-3-tetradecanoyloxytetradecyl}-β-D-glucopyranosyl]-3-{(R)-3-hydroxytetradecanoylamino}-4-O-{(R)-3-hydroxytetradecyl}-3-deoxy-D-glycero-D-ido-heptonic Acid] | 0.61 |  |  |
| CCCCCCCCCCCCO[C@H](CCCCCCCCCCC)CCO[C@@H]1[C@@H](NC(C)=O)[C@H](OC[C@H]2O[C@H](C(=O)O)[C@H](NC(=O)C[C@H](O)CCCCCCCCCCC)[C@@H](OCC[C@H](O)CCCCCCCCCCC)[C@@H]2O)O[C@H](COC)[C@H]1OP(=O)(O)O [Example 5, 2,6-Anhydro-7-O-[2-acetylamino-2-deoxy-3-O-{(R)-3-dodecyloxytetradecyl}-6-O-methyl-4-O-phosphono-β-D-glucopyranosyl]-3-{(R)-hydroxytetradecanoylamino}-4-O-{(R)-3-hydroxytetradecyl}-3-deoxy-D-glycero-D-ido-heptonic Acid] |  |  | 6.4 |
| CCCCCCCCCCCCO[C@H](CCCCCCCCCCC)CCO[C@@H]1[C@@H](NC(C)=O)[C@H](OC[C@H]2O[C@H](C(=O)O)[C@H](NC(=O)C[C@H](O)CCCCCCCCCCC)[C@@H](OCC[C@H](O)CCCCCCCCCCC)[C@@H]2O)O[C@H](CF)[C@H]1OP(=O)(O)O [Example 6] |  |  | 10 |

Further lines, with some results ahead:

| IC50 ([1]; U-937) [nM] | melting point [°C] | Compound | IC50 [1] [nM] |
| --- | --- | --- | --- |
| 11 |  | CCCCCCCCCCCCCC(=O)O[C@H](CCCCCCCCCCC)CCO[C@H]1[C@H](OP(=O)(O)O)[C@@H](CO)OC(OC[C@H]2O[C@H](C(=O)O)[C@H](NC(=O)C[C@H](O)CCCCCCCCCCC)[C@@H](OCC[C@H](O)CCCCCCCCCCC)[C@@H]2O)[C@@H]1NC(C)=O (stereo partly drawn) [Example 1, 2,6-Anhydro-7-O-[2-acetylamino-2-deoxy-4-O-phosphono-3-O-{(R)-3-tetradecanoyloxytetradecyl}-D-glucopyranosyl]-3-{(R)-3-hydroxytetradecanoylamino}-4-O-{(R)-3-hydroxytetradecyl}-3-deoxy-D-glycero-D-ido-heptonic Acid] |  |
| 1.2 |  | CCCCCCCCCCCCCC(=O)O[C@H](CCCCCCCCCCC)CCO[C@@H]1[C@@H](NC(C)=O)[C@H](OC[C@H]2O[C@H](C(=O)O)[C@H](NC(=O)C[C@H](O)CCCCCCCCCCC)[C@@H](OCC[C@H](O)CCCCCCCCCCC)[C@@H]2O)O[C@H](CF)[C@H]1OP(=O)(O)O [Example 3, 2,6-Anhydro-7-O-[2-acetylamino-2,6-dideoxy-6-fluoro-4-O-phosphono-3-O-{(R)-3-tetradecanoyloxytetradecyl}-β-D-glucopyranosyl]-3-{(R)-3-hydroxytetradecanoylamino}-4-O-{(R)-3-hydroxytetradecyl}-3-deoxy-D-glycero-D-ido-heptonic Acid] |  |
| 11 | 179 to 181 | CCCCCCCCCCCCO[C@H](CCCCCCCCCCC)CCO[C@@H]1[C@@H](NC(C)=O)[C@H](OC[C@H]2O[C@H](C(=O)O)[C@H](NC(=O)C[C@H](O)CCCCCCCCCCC)[C@@H](OCC[C@H](O)CCCCCCCCCCC)[C@@H]2O)O[C@H](CO)[C@H]1OP(=O)(O)O [Example 4, 2,6-Anhydro-7-O-[2-acetylamino-2-deoxy-3-O-{(R)-3-dodecyloxytetradecyl}-4-O-phosphono-β-D-glucopyranosyl]-3-{(R)-3-hydroxytetradecanoylamino}-4-O-{(R)-3-hydroxytetradecyl}-3-deoxy-D-glycero-D-ido-heptonic Acid] |  |
